Experimental data reported in patent US4612371A, “Anthracycline antibiotics” (Sanraku Incorporated, priority 1984, dated 1986).
Converted amounts (≈) assume the structure as drawn.

Legend:
mouse L1210 leukemia = experiment: In vivo anti-tumor activity against mouse L1210 leukemia; conditions: day 1 to day 10, CDF1 mice, n = 6
Text: Inoculation: 1 × 10^5 cell/mouse (i.p.)
Treatment: day 1 to day 10 (i.p.)

[1] = system: mouse leukemia L1210 cells; experiment: Inhibition of RNA synthesis in L1210 culture cells (14C-uridine intake); type: cell-based; conditions: read-out: 50% Inhibitory Concentration (IC50), Inhibition of RNA Synthesis
Experimental: (§1) L 1210 cells of 5×10^4 /ml were inoculated on, e.g., RPM 11640 medium (Rosewellberg Research Laboratories) containing 20% bovine serum and, the substances of the present invention were added thereto, respectively, in a concentration of 0.02 to 0.25 μg/ml in a similar fashion. Cultivation was performed at 37° C. in a carbon dioxide culture bottle. Then, a 50% inhibitory action against proliferation was determined based on control fraction. Further, the aforesaid L 1210 culture cell was suspended in 10% bovine serum-containing RPM 11640 medium in a concentration of 5×10^5 /ml. After cultivating at 37° C. for 1 to 2 hours in a carbon dioxide culture bottle, the substance was added in various concentrations and, ^14 C-uridine (0.05 μCi/ml) or ^14 C-thymidine (0.05 μCi/ml) was further added thereto 15 minutes after followed by culturing at 37° C. for 60 minutes. A cold 10% trichloro-acetic acid was added to the reaction solution to discontinue the reaction and at the same time, matters insoluble in the acid were precipitated. After washing further twice with cold 5% trichloroacetic acid, the insoluble matters were dissolved in formic acid and, radioactivity was measured. A 50% intake inhibitory concentration was determined from an intake rate of radioactivity, based on the control fraction to which no substance was added.

[2] = system: mouse leukemia L1210 cells; experiment: Inhibition of proliferation of cultured mouse leukemia L1210 cells; type: cell-based
Experimental: as §1

[3] = system: mouse leukemia L1210 cells; experiment: Inhibition of DNA synthesis in L1210 culture cells (14C-thymidine intake); type: cell-based; conditions: read-out: 50% Inhibitory Concentration (IC50), Inhibition of DNA Synthesis
Experimental: as §1

[4] = 1 h, L1210 cells 5×10^5/ml, 10% bovine serum, 14C-uridine, 60 minutes, 37° C.
[5] = L1210 cells 5×10^4/ml, 20% bovine serum, 37° C., read-out: 50% Inhibitory Concentration (IC50), Inhibition of Cell Proliferation
[6] = 1 h, L1210 cells 5×10^5/ml, 10% bovine serum, 14C-thymidine, 60 minutes, 37° C.

SMILES	IC50 [1, 4] [µg/mL]	IC50 [2, 5] [µg/mL]	IC50 [3, 6] [µg/mL]	further results
CCC1(O)CC(OC2CC(N)C(O)C(C)O2)c2c(O)c3c(c(O)c2C1O)C(=O)c1cccc(O)c1C3=O (stereo not shown) [D788-7]	0.68 (≈ 1.32 µM)	0.0003 (≈ 0.000582 µM)	0.29 (≈ 0.563 µM)	Anti-tumor Effect T/C(%) (mouse L1210 leukemia; 4 μg/kg/day i.p.): 102%; Anti-tumor Effect T/C(%) (mouse L1210 leukemia; 8 μg/kg/day i.p.): 104%; Anti-tumor Effect T/C(%) (mouse L1210 leukemia; 16 μg/kg/day i.p.): 133%; Anti-tumor Effect T/C(%) (mouse L1210 leukemia; 32 μg/kg/day i.p.): 187%; Anti-tumor Effect T/C(%) (mouse L1210 leukemia; 62.5 μg/kg/day i.p.): 204%; Anti-tumor Effect T/C(%) (mouse L1210 leukemia; 125 μg/kg/day i.p.): 172%; Anti-tumor Effect T/C(%) (mouse L1210 leukemia; 250 μg/kg/day i.p.): 100%
COC(=O)C1c2c(O)c3c(c(O)c2C(OC2CC(N)C(O)C(C)O2)CC1(O)C(C)=O)C(=O)c1c(O)cccc1C3=O (stereo not shown) [D788-9]	2.59 (≈ 4.53 µM)	0.22 (≈ 0.385 µM)	4.2 (≈ 7.35 µM)	–
CCC1(O)CC(OC2CC(N)C(O)C(C)O2)c2c(O)c3c(c(O)c2C1C(=O)OC)C(=O)c1cccc(O)c1C3=O (stereo not shown) [D788-6]	–	–	–	IC50 ([1]; L1210, 1 h): 1.3 µg/mL (≈ 2.33 µM); IC50 ([2]; L1210, read-out: 50% Inhibitory Concentration (IC50), Inhibition of Cell Proliferation): 0.25 µg/mL (≈ 0.448 µM); IC50 ([3]; L1210, 1 h): 2.6 µg/mL (≈ 4.66 µM)

More lines, main results first:

IC50 [1, 4] [µg/mL]	IC50 [2, 5] [µg/mL]	IC50 [3, 6] [µg/mL]	SMILES	further results
1.58 (≈ 3.18 µM)	0.22 (≈ 0.442 µM)	3.4 (≈ 6.83 µM)	CC(O)C1=Cc2c(O)c3c(c(O)c2[C@@H](O[C@H]2C[C@H](N)[C@H](O)[C@H](C)O2)C1)C(=O)c1c(O)cccc1C3=O (stereo partly shown) [D788-8]	–
10 (≈ 17.9 µM)	0.083 (≈ 0.148 µM)	10 (≈ 17.9 µM)	CC1OC(OC2CC(O)(C(C)O)C(C(=O)O)c3c(O)c4c(c(O)c32)C(=O)c2c(O)cccc2C4=O)CC(N)C1O (stereo not shown) [D788-10]	–
